Assay results published in ChEMBL document CHEMBL1201862, “PubChem BioAssay data set” (2004).
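Method: 48-hour compound exposure of cells in 96-well plates, five concentrations, linear interpolation of endpoints. GI50: concentration for 50% inhibition of growth.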 Activity calls are given as the source filed them. Rule as the data show it: active = GI50 up to about 1.1 µM and inactive = higher.

Key:
Test in all cases: NCI anticancer screen, dose series, 48 h
[1] = test system: CCRF-CEM
[2] = test system: M19-MEL
[3] = test system: SK-MEL-2
[4] = test system: SR
[5] = test system: SNB-78
[6] = test system: DMS-273
[7] = test system: TK-10
[8] = test system: SW-620
[9] = test system: COLO 205
[10] = test system: XF498
[11] = test system: DMS-114
[12] = test system: LXFL 529
[13] = test system: MCF7
[14] = test system: A498
[15] = test system: NCI/ADR-RES
[16] = test system: NCI-H460
[17] = test system: SNB-75
[18] = test system: UACC-257
[19] = test system: RXF 631
[20] = test system: HOP-18

SMILES	GI50 [1]	GI50 [2]	GI50 [3]	GI50 [4]	GI50 [5]	GI50 [6]	GI50 [7]	GI50 [8]	GI50 [9]	GI50 [10]	GI50 [11]	GI50 [12]	GI50 [13]	GI50 [14]	GI50 [15]	GI50 [16]	GI50 [17]	GI50 [18]	GI50 [19]	GI50 [20]
N#CCCN(CCC#N)c1ccc(/C=C2\N=C(c3cc([N+](=O)[O-])ccc3Cl)N(NC(=O)CC(=O)Nc3ccccc3Cl)C2=O)cc1	> 100 µM (inactive)	> 100 µM (inactive)	> 100 µM (inactive)	> 100 µM (inactive)	> 100 µM (inactive)	> 100 µM (inactive)	> 100 µM (inactive)	> 100 µM (inactive)	> 100 µM (inactive)	> 100 µM (inactive)	> 100 µM (inactive)	> 100 µM (inactive)	–	–	–	–	–	–	–	–
CCOCC(=O)N(C)c1cccc2c3c(n(C)c12)CCCCC3	> 58.9 µM (inactive)	> 100 µM (inactive)	> 100 µM (inactive)	–	> 100 µM (inactive)	> 31.6 µM (inactive)	–	> 100 µM (inactive)	> 100 µM (inactive)	> 93.8 µM (inactive)	> 100 µM (inactive)	–	> 100 µM (inactive)	> 100 µM (inactive)	> 100 µM (inactive)	> 100 µM (inactive)	> 46.1 µM (inactive)	1 µM (active)	–	–
COc1ccc(NC(=O)/C(=C/c2ccc(N(CCC#N)CCC#N)cc2)NC(=O)c2cc([N+](=O)[O-])ccc2Cl)cc1	71.6 µM (inactive)	56.4 µM (inactive)	56.1 µM (inactive)	74.1 µM (inactive)	> 100 µM (inactive)	34.4 µM (inactive)	66.1 µM (inactive)	98.6 µM (inactive)	59.8 µM (inactive)	> 100 µM (inactive)	–	8.89 µM (inactive)	–	–	–	–	–	–	99.5 µM (inactive)	> 100 µM (inactive)
NC(CSC(=O)c1ccccc1)C(=O)O (centres undefined)	> 100 µM (inactive)	–	> 100 µM (inactive)	> 100 µM (inactive)	–	–	> 100 µM (inactive)	> 100 µM (inactive)	> 100 µM (inactive)	–	–	–	> 100 µM (inactive)	> 100 µM (inactive)	> 100 µM (inactive)	> 100 µM (inactive)	> 100 µM (inactive)	> 100 µM (inactive)	–	–
Cn1c2c(c3ccccc31)CCN(CCCN1CCN(c3ccccc3)CC1)C2=O	28.2 µM (inactive)	19.5 µM (inactive)	–	–	–	21.5 µM (inactive)	16.9 µM (inactive)	22.1 µM (inactive)	17.6 µM (inactive)	12.6 µM (inactive)	16.9 µM (inactive)	17.9 µM (inactive)	–	18.5 µM (inactive)	–	–	–	–	–	15.5 µM (inactive)
CN(C)C(=S)/N=C1\SC(=N\c2ccccc2)/C(=N/c2ccccc2)N1c1ccc([N+](=O)[O-])cc1	> 100 µM (inactive)	–	> 100 µM (inactive)	> 100 µM (inactive)	–	–	–	–	> 100 µM (inactive)	–	–	–	> 100 µM (inactive)	> 100 µM (inactive)	> 100 µM (inactive)	> 100 µM (inactive)	> 100 µM (inactive)	–	–	–
O=[N+]([O-])c1ccc(CNC2=NNS(=O)(=O)c3ccccc32)cc1	19.5 µM (inactive)	> 100 µM (inactive)	> 100 µM (inactive)	31.6 µM (inactive)	> 100 µM (inactive)	> 100 µM (inactive)	–	> 100 µM (inactive)	> 100 µM (inactive)	> 100 µM (inactive)	> 100 µM (inactive)	36.1 µM (inactive)	–	32.1 µM (inactive)	–	> 100 µM (inactive)	–	> 100 µM (inactive)	> 100 µM (inactive)	–
CC(NC(=O)C(NC(=O)CNC(=O)OC(C)(C)C)C(C)C)C(=O)Oc1c(Cl)c(Cl)c(Cl)c(Cl)c1Cl (centres undefined)	51.1 µM (inactive)	–	14.3 µM (inactive)	71 µM (inactive)	–	–	26.8 µM (inactive)	24.7 µM (inactive)	17 µM (inactive)	–	–	–	25.5 µM (inactive)	21.8 µM (inactive)	17.5 µM (inactive)	18.6 µM (inactive)	28 µM (inactive)	15.9 µM (inactive)	–	–
